What was measured:
Assay in all cases: KINOMEscan scanEDGE
Type in all cases: binding
Details in all cases: read-out: % Control (1µM)
CDK11 = biological target: T1, CDK11 (Homo sapiens, UniProt Q9BWU1)
T1 construct: purchased DiscoveRx KINOMEscan (scanEDGE); Thermo Fisher SelectScreen (Z'-LYTE) for PLK-1
Protocol: (§1) Compound X was assayed at 1 μM in the DiscoveRx KINOMEscan (scanEDGE) assay platform. The results for single-concentration binding interactions are reported as “%Ctrl” (DMSO = 100%Ctrl), where lower numbers indicate stronger hits.

EPHA2 = biological target: T2, EPHA2 (Homo sapiens, UniProt P29317)
T2 construct: purchased DiscoveRx KINOMEscan (scanEDGE); Thermo Fisher SelectScreen (Z'-LYTE) for PLK-1
Protocol: as §1

SRPK3 = biological target: T3, SRPK3 (Homo sapiens, UniProt Q9UPE1)
T3 construct: purchased DiscoveRx KINOMEscan (scanEDGE); Thermo Fisher SelectScreen (Z'-LYTE) for PLK-1
T3 sequence (Q9UPE1 whole entry): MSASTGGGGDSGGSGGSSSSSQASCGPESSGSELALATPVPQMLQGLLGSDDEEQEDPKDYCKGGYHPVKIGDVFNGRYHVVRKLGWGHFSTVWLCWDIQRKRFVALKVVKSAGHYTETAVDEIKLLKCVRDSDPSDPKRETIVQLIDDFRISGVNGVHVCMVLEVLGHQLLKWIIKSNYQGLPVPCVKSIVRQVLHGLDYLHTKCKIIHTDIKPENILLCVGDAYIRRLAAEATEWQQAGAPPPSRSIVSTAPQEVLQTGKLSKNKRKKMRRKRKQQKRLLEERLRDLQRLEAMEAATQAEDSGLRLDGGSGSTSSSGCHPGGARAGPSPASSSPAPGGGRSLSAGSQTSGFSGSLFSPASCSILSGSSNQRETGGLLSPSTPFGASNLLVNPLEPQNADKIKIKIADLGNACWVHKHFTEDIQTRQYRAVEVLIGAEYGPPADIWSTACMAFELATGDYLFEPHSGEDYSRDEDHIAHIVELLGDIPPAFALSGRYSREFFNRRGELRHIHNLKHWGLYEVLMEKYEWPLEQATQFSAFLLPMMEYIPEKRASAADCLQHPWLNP
Protocol: as §1

PIK3CA = biological target: T4, PIK3CA (Homo sapiens, UniProt P42336)
T4 construct: purchased DiscoveRx KINOMEscan (scanEDGE); Thermo Fisher SelectScreen (Z'-LYTE) for PLK-1
Protocol: as §1

AKT1 = biological target: T5, AKT1 (Homo sapiens, UniProt P31749)
T5 construct: purchased DiscoveRx KINOMEscan (scanEDGE); Thermo Fisher SelectScreen (Z'-LYTE) for PLK-1
Protocol: as §1

DYRK1B = biological target: T6, DYRK1B (Homo sapiens, UniProt Q9Y463)
T6 construct: purchased DiscoveRx KINOMEscan (scanEDGE); Thermo Fisher SelectScreen (Z'-LYTE) for PLK-1
T6 sequence (Q9Y463 whole entry): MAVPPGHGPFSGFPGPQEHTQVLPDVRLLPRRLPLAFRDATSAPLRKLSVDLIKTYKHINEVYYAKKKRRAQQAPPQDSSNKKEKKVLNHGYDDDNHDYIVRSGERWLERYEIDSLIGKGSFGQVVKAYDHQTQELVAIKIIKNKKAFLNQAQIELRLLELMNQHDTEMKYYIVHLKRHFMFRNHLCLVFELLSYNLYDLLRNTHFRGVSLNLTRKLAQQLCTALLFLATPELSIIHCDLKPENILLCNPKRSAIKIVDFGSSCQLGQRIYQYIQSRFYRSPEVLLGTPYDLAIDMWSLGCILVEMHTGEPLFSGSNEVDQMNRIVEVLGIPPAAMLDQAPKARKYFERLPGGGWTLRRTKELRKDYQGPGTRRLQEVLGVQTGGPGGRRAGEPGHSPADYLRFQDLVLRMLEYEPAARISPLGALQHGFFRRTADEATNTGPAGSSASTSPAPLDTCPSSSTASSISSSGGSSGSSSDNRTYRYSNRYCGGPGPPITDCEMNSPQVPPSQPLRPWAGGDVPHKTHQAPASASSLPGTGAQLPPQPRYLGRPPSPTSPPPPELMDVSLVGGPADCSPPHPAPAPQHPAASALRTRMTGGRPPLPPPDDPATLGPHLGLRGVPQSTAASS
Protocol: as §1

ACVR1B = biological target: T7, ACVR1B (Homo sapiens, UniProt P36896)
T7 construct: purchased DiscoveRx KINOMEscan (scanEDGE); Thermo Fisher SelectScreen (Z'-LYTE) for PLK-1
Protocol: as §1

PIM1 = biological target: T8, PIM1 (Homo sapiens, UniProt P11309)
T8 construct: purchased DiscoveRx KINOMEscan (scanEDGE); Thermo Fisher SelectScreen (Z'-LYTE) for PLK-1
Protocol: as §1

ERK1 = biological target: T9, ERK1 (Homo sapiens, UniProt P27361)
T9 construct: purchased DiscoveRx KINOMEscan (scanEDGE); Thermo Fisher SelectScreen (Z'-LYTE) for PLK-1
Protocol: as §1

CDK7 = biological target: T10, CDK7 (Homo sapiens, UniProt P50613)
T10 construct: purchased DiscoveRx KINOMEscan (scanEDGE); Thermo Fisher SelectScreen (Z'-LYTE) for PLK-1
Protocol: as §1

YANK3 = biological target: T11, YANK3 (Homo sapiens, UniProt Q86UX6)
T11 construct: purchased DiscoveRx (DiscoverX)
Protocol: as §1

ABL1-phosphorylated = biological target: T12, ABL1-phosphorylated (Homo sapiens, UniProt P00519)
T12 construct: purchased DiscoveRx KINOMEscan (scanEDGE); Thermo Fisher SelectScreen (Z'-LYTE) for PLK-1
T12 sequence (P00519 whole entry): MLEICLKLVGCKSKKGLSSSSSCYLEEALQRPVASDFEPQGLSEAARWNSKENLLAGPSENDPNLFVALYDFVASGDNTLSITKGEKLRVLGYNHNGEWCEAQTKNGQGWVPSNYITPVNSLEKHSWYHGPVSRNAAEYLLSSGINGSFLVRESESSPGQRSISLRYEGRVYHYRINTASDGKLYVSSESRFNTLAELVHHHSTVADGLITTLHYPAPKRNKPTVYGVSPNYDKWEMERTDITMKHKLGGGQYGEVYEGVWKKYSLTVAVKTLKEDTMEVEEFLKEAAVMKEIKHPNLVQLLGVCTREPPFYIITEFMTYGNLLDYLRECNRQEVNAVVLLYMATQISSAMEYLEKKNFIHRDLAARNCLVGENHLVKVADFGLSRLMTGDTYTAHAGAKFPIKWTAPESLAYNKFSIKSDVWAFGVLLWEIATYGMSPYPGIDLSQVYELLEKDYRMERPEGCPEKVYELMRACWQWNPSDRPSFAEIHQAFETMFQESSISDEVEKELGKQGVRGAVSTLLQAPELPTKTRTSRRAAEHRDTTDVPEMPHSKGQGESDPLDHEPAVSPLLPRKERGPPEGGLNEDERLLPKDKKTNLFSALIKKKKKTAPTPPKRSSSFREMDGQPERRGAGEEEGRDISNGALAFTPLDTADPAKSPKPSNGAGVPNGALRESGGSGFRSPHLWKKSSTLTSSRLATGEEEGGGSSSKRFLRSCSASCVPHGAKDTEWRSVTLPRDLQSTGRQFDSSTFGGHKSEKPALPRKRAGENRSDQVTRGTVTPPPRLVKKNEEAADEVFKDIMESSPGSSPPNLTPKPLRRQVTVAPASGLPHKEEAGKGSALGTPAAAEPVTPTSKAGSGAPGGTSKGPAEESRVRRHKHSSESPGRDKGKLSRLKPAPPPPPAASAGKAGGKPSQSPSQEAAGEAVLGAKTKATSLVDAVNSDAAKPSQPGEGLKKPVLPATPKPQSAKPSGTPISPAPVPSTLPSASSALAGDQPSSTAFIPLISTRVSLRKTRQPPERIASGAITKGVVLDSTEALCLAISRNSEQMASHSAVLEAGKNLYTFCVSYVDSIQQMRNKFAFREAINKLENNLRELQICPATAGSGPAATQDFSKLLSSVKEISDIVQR
Protocol: as §1

MET = biological target: T13, MET (Homo sapiens, UniProt P08581)
T13 construct: purchased DiscoveRx KINOMEscan (scanEDGE); Thermo Fisher SelectScreen (Z'-LYTE) for PLK-1
Protocol: as §1

p38-alpha = biological target: T14, p38-alpha (Homo sapiens, UniProt Q16539)
T14 construct: purchased DiscoveRx KINOMEscan (scanEDGE); Thermo Fisher SelectScreen (Z'-LYTE) for PLK-1
Protocol: as §1

CSNK1G2 = biological target: T15, CSNK1G2 (Homo sapiens, UniProt P78368)
T15 construct: purchased DiscoveRx KINOMEscan (scanEDGE); Thermo Fisher SelectScreen (Z'-LYTE) for PLK-1
Protocol: as §1

KIT = biological target: T16, KIT (Homo sapiens, UniProt P10721)
T16 construct: purchased DiscoveRx (DiscoverX)
T16 sequence (P10721 26-976): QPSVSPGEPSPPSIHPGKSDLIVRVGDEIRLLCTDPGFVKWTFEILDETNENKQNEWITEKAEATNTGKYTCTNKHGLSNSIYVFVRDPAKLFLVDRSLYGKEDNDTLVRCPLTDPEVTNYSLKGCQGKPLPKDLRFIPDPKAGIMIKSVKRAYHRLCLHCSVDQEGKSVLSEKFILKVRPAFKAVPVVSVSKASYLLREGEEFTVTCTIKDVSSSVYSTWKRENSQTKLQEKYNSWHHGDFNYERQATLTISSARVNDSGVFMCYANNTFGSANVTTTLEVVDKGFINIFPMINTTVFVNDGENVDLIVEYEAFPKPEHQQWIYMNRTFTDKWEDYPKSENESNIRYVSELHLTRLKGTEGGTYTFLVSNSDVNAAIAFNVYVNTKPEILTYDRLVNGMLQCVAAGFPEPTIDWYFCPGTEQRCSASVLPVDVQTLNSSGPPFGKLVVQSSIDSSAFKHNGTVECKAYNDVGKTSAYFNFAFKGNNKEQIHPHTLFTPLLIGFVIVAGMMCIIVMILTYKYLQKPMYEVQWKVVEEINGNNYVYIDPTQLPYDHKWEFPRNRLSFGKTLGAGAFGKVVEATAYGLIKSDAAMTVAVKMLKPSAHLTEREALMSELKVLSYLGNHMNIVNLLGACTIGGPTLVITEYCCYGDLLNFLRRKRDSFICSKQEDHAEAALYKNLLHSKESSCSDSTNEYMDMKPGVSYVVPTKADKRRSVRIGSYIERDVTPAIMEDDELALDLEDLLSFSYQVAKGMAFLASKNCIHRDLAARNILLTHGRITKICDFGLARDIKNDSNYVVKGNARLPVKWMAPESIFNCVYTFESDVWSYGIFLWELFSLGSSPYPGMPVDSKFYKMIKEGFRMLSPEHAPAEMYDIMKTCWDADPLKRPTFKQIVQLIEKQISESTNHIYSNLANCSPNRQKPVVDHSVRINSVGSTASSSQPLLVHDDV
Protocol: as §1

PIM3 = biological target: T17, PIM3 (Homo sapiens, UniProt Q86V86)
T17 construct: purchased DiscoveRx KINOMEscan (scanEDGE); Thermo Fisher SelectScreen (Z'-LYTE) for PLK-1
Protocol: as §1

MLK1 = biological target: T18, MLK1 (Homo sapiens, UniProt P80192)
T18 construct: purchased DiscoveRx KINOMEscan (scanEDGE); Thermo Fisher SelectScreen (Z'-LYTE) for PLK-1
Protocol: as §1

JNK3 = biological target: T19, JNK3 (Homo sapiens, UniProt P53779)
T19 construct: purchased DiscoveRx (DiscoverX)
T19 sequence (P53779 whole entry): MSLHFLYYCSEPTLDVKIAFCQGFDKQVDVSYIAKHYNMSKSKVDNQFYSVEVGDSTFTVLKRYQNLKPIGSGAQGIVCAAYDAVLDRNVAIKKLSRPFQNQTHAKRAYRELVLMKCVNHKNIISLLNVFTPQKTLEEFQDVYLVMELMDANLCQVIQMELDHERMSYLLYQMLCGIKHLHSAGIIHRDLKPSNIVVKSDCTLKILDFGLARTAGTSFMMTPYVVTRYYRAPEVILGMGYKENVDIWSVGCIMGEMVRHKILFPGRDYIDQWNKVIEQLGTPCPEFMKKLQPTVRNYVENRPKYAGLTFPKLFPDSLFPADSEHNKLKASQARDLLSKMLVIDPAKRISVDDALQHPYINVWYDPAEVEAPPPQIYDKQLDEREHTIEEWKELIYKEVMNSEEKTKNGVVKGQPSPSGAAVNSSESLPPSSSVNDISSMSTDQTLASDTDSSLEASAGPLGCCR
Protocol: as §1

JNK1 = biological target: T20, JNK1 (Homo sapiens, UniProt P45983)
T20 construct: purchased DiscoveRx KINOMEscan (scanEDGE); Thermo Fisher SelectScreen (Z'-LYTE) for PLK-1
Protocol: as §1

PDPK1 = biological target: T21, PDPK1 (Homo sapiens, UniProt O15530)
T21 construct: purchased DiscoveRx KINOMEscan (scanEDGE); Thermo Fisher SelectScreen (Z'-LYTE) for PLK-1
T21 sequence (O15530 whole entry): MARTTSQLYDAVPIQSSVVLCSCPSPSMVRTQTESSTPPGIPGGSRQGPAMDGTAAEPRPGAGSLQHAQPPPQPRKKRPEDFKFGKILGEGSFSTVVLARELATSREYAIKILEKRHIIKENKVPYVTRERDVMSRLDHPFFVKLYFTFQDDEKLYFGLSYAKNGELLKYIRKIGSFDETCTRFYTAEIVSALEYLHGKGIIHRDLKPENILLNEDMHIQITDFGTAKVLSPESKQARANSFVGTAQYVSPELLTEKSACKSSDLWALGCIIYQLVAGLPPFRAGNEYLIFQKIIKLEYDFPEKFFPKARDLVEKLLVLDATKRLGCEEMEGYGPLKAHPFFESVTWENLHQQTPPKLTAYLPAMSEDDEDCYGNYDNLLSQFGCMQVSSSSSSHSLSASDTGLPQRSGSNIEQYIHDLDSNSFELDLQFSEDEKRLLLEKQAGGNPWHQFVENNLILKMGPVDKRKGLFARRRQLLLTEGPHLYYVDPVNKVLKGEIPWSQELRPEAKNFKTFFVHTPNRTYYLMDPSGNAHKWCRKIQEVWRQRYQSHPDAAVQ
Protocol: as §1

T1 sequence (Q9BWU1 whole entry): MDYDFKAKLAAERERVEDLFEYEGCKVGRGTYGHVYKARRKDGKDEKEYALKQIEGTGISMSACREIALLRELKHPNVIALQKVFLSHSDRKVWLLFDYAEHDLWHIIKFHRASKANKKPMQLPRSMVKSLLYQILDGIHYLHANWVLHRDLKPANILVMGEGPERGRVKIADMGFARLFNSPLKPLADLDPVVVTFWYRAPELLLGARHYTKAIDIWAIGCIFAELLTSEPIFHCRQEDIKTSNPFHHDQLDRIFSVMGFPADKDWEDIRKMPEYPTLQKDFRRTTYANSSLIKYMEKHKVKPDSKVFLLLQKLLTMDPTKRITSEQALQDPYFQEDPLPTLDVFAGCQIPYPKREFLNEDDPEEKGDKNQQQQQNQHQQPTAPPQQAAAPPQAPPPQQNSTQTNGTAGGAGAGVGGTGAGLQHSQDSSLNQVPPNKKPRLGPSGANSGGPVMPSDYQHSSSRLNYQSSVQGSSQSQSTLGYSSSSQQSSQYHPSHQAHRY

CCOc1cc(C2CCN(C)CC2)ccc1Nc1ncc2c(n1)N(Cc1cc(C)cs1)[C@H](CC)C(=O)N2C [16k, (R)-2-((2-Ethoxy-4-(1-methylpiperidin-4-yl)phenyl)amino)-7-ethyl-5-methyl-8-((4-methylthiophen-2-yl)methyl)-7,8-dihydropteridin-6(5H)-one]
remaining binding at 1 µM (CDK11): 93% | remaining binding at 1 µM (EPHA2): 100% | remaining binding at 1 µM (SRPK3): 100% | remaining binding at 1 µM (PIK3CA): 96% | remaining binding at 1 µM (AKT1): 96% | remaining binding at 1 µM (DYRK1B): 63% | remaining binding at 1 µM (ACVR1B): 85% | remaining binding at 1 µM (PIM1): 97% | remaining binding at 1 µM (ERK1): 100% | remaining binding at 1 µM (CDK7): 88% | remaining binding at 1 µM (YANK3): 100% | remaining binding at 1 µM (ABL1-phosphorylated): 100% | remaining binding at 1 µM (MET): 94% | remaining binding at 1 µM (p38-alpha): 92% | remaining binding at 1 µM (CSNK1G2): 100% | remaining binding at 1 µM (KIT): 100% | remaining binding at 1 µM (PIM3): 100% | remaining binding at 1 µM (MLK1): 100% | remaining binding at 1 µM (JNK3): 39% | remaining binding at 1 µM (JNK1): 64% | remaining binding at 1 µM (PDPK1): 98%

Reference: publication PMC6421522, “Designing Dual Inhibitors of Anaplastic Lymphoma Kinase (ALK) and Bromodomain-4 (BRD4) by Tuning Kinase Selectivity” (Journal of Medicinal Chemistry, 2019)
